#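 Step 1: Grow cells in 96-well plates. Step 2: Expose to compound for 48 hours at 5 concentrations. Step 3: Interpolate endpoints linearly; if unreached, use highest concentration. The concentration for 50% growth inhibition is given as GI50. TGI marks complete inhibition of growth.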
# How the values were obtained:
# Assay in all cases: growth of human tumour cells (NCI), 48 h
# [1] = test system: SK-MEL-5 melanoma
# [2] = test system: COLO 205 colon
# [3] = test system: HCT-15 colon
# [4] = test system: UACC-62 melanoma
# [5] = test system: NCI/ADR-RES ovarian
# [6] = test system: SF-268 CNS
# [7] = test system: HOP-92 NSCLC
# [8] = test system: CAKI-1 renal
# [9] = test system: LOX IMVI melanoma
# [10] = test system: RPMI-8226 leukemia
# [11] = test system: MCF7 breast
# [12] = test system: MDA-MB-231 breast
# [13] = test system: RXF 393 renal
# [14] = test system: 786-0 renal
# [15] = test system: SK-MEL-2 melanoma
# [16] = test system: NCI-H460 lung
# [17] = test system: SW-620 colon
# [18] = test system: MOLT-4 leukemia
# [19] = test system: SNB-75 CNS
# [20] = test system: OVCAR-5 ovarian
# [21] = test system: SN12C renal
# [22] = test system: A549 NSCLC
# [23] = test system: A498 renal
# [24] = test system: SF-539 CNS
# [25] = test system: UACC-257 melanoma
# [26] = test system: HS 578T breast
# [27] = test system: MDA-MB-435
# [28] = test system: DU-145 prostate
# [29] = test system: BT-549 breast
# [30] = test system: OVCAR-8 ovarian
# [31] = test system: ACHN renal
# [32] = test system: EKVX NSCLC
# [33] = test system: SK-MEL-28 melanoma
# [34] = test system: OVCAR-4 ovarian
# [35] = test system: TK-10 renal
# [36] = test system: PC-3 prostate
# [37] = test system: NCI-H226 lung
# [38] = test system: HT29 colon
# [39] = test system: SK-OV-3 ovarian
# [40] = test system: K-562 leukemia
# [41] = test system: M14 melanoma
# [42] = test system: MALME-3M melanoma
# [43] = test system: OVCAR-3 ovarian
# [44] = test system: T-47D breast
# [45] = test system: KM12 colon
# [46] = test system: HCT-116 colon
# [47] = test system: CCRF-CEM leukemia
# [48] = test system: HOP-62 NSCLC
# [49] = test system: IGROV1 ovarian
# [50] = test system: U251 CNS
# [51] = test system: SF-295 CNS
# [52] = test system: HL-60(TB) leukemia
# [53] = test system: UO-31 renal
# [54] = test system: SNB-19 CNS
# [55] = test system: NCI-H23 lung
# [56] = test system: SR leukemia
# [57] = test system: HCC-2998 colon
# [58] = test system: NCI-H522 lung
smiles,measurement,setting,value
CCN(CC)CCOc1ccc(C(=C(C)c2ccc(OC)cc2)c2ccc(OCCN(CC)CC)cc2)cc1,GI50,[1],873 nM
same,TGI,[1],1630 nM
same,GI50,[2],1060 nM
same,TGI,[2],2350 nM
same,GI50,[3],731 nM
same,TGI,[3],1870 nM
same,GI50,[4],887 nM
same,TGI,[4],1700 nM
same,GI50,[5],1700 nM
same,TGI,[5],6500 nM
same,GI50,[6],1210 nM
same,TGI,[6],3430 nM
same,GI50,[7],627 nM
same,TGI,[7],1890 nM
same,GI50,[8],978 nM
same,TGI,[8],2300 nM
same,GI50,[9],530 nM
same,TGI,[9],1220 nM
same,GI50,[10],1140 nM
same,TGI,[10],3240 nM
same,GI50,[11],275 nM
same,TGI,[11],1100 nM
same,GI50,[12],973 nM
same,TGI,[12],2080 nM
same,GI50,[13],738 nM
same,TGI,[13],1500 nM
same,GI50,[14],761 nM
same,TGI,[14],1800 nM
same,GI50,[15],1030 nM
same,TGI,[15],2140 nM
same,GI50,[16],1440 nM
same,TGI,[16],4470 nM
same,GI50,[17],936 nM
same,TGI,[17],2020 nM
same,GI50,[18],1340 nM
same,TGI,[18],5250 nM
same,GI50,[19],7590 nM
same,TGI,[19],17500 nM
same,GI50,[20],1570 nM
same,TGI,[20],5680 nM
same,GI50,[21],972 nM
same,TGI,[21],2400 nM
same,GI50,[22],1520 nM
same,TGI,[22],6020 nM
same,GI50,[23],997 nM
same,TGI,[23],2470 nM
same,GI50,[24],875 nM
same,TGI,[24],1650 nM
same,GI50,[25],942 nM
same,TGI,[25],1880 nM
same,GI50,[26],1090 nM
same,TGI,[26],3150 nM
same,GI50,[27],903 nM
same,TGI,[27],1760 nM
same,GI50,[28],2090 nM
same,TGI,[28],8170 nM
same,GI50,[29],1030 nM
same,TGI,[29],2920 nM
same,GI50,[30],1680 nM
same,TGI,[30],6370 nM
same,GI50,[31],1140 nM
same,TGI,[31],2750 nM
same,GI50,[32],2010 nM
same,TGI,[32],8150 nM
same,GI50,[33],856 nM
same,TGI,[33],1620 nM
same,GI50,[34],1060 nM
same,TGI,[34],2460 nM
same,GI50,[35],1150 nM
same,TGI,[35],3280 nM
same,GI50,[36],1180 nM
same,TGI,[36],4290 nM
same,GI50,[37],2430 nM
same,TGI,[37],10300 nM
same,GI50,[38],665 nM
same,TGI,[38],2030 nM
same,GI50,[39],1270 nM
same,TGI,[39],3170 nM
same,GI50,[40],874 nM
same,TGI,[40],3800 nM
same,GI50,[41],936 nM
same,TGI,[41],1890 nM
same,GI50,[42],832 nM
same,TGI,[42],1640 nM
same,GI50,[43],1240 nM
same,TGI,[43],3620 nM
same,GI50,[44],747 nM
same,TGI,[44],2070 nM
same,GI50,[45],1800 nM
same,TGI,[45],6950 nM
same,GI50,[46],614 nM
same,TGI,[46],1600 nM
same,GI50,[47],1260 nM
same,TGI,[47],5870 nM
same,GI50,[48],1440 nM
same,TGI,[48],4760 nM
same,GI50,[49],1290 nM
same,TGI,[49],3100 nM
same,GI50,[50],876 nM
same,TGI,[50],2000 nM
same,GI50,[51],883 nM
same,TGI,[51],1750 nM
same,GI50,[52],1270 nM
same,TGI,[52],2860 nM
same,GI50,[53],789 nM
same,TGI,[53],1500 nM
same,GI50,[54],1610 nM
same,TGI,[54],5390 nM
same,GI50,[55],1470 nM
same,TGI,[55],5520 nM
same,GI50,[56],289 nM
same,TGI,[56],50000 nM
same,GI50,[57],1050 nM
same,TGI,[57],2390 nM
same,GI50,[58],1010 nM
same,TGI,[58],2240 nM

# From PubChem BioAssay (NCI)
